Here are results for five molecules from publication PMC12948427 (The Journal of Clinical Investigation, 2025).

Values joined by “and” are separate entries in the source; they are usually repeats but may differ in a detail not shown here. Equal values may be shown once. Read-outs that look alike come from different tables or passages of the source. Ends that are not written are not given here.

Series [1] deals with 17Cl-1 cells.
Series [2] relates to MHV.
In series [3] the test system is M protein. The experiment in a line: BFA treatment and washout: ER export of M protein in 17Cl-1 cells. It is filed as cell-based. The conditions noted are these: for Colocalization of M protein with ERGIC53 / Colocalization of M protein with SEC61B: individual replicate values, Figure S5A; for ERGIC53 (colocalization value, Figure S5B) / SEC61B (colocalization value, Figure S5B): individual replicates. The protocol: 70–80% confluent 17Cl-1 cells were treated with 5 µg/mL final BFA (Catalog no #HY-
16592; MCE) for 40 min at 37°C. BFA was washed out by three brief rinses in PBS and
cells were then incubated at 37°C for 5 h before fixation with 4% PFA.

The test system of series [4] is MHV. It is filed as cell-based, mouse hepatitis virus (MHV). As to conditions: RTB 0 uM.
In series [5] the test system is SARS-CoV-2 Omicron BA.5. It is filed as in vivo, K18-hACE2 C57BL/6 mice.
Series [6] concerns Calu-3 cells.
A short description of series [7]: in vitro. As to conditions: mouse, 17Cl-1 cells, cell viability, Figure S7E.
Series [8] concerns Vero E6 cells.
The nature of series [9]: in vitro. As to conditions: human, Calu-3 cells, cell viability, Figure S7G.
Series [10] can be described thus: in vitro. The conditions noted are these: Vero E6 cells, cell viability, Figure S7F.

`COc1ccc(N)cn1` [5-amino-2 methoxypyridine]: the “cell viability, Figures S9A, B, D-F” value in [1] (concentration 0.01), in [1] (concentration 0.03), in [1] (concentration 0.1), in [1] (concentration 0.3), in series [1] (concentration 1) and in series [1] (concentration 3) was 100 each time. Also, the “cell viability, Figures S9A, B, D-F” value in series [1] (concentration 10) amounted to 100; in series [1] (concentration 25) it was 103.896. In addition, the “viability of infected cells (rescue of cytopathic effect), Figures S9G-L” value in series [2] (concentration 10) is 50.187 and 47.1573 and 49.7662; in series [2] (concentration 30) it was 52.4593 and 51.6738 and 47.1012; in series [2] (concentration 100), 53.2448 and 47.1573 and 49.2052; in [2] (concentration 300), 49.4576 and 49.4296 and 47.5781; in series [2] (concentration 1000), 50.0187 and 48.055 and 47.0451; in series [2] (concentration 3000), 52.3191 and 51.9824 and 49.121. Also, the “viability of infected cells (rescue of cytopathic effect), Figures S9G-L” value in series [2] (concentration 10000) was 58.7432 and 53.4412 and 53.7217; in series [2] (concentration 25000), 59.3884 and 60.7069 and 59.0799.

Consider `C[C@H]1CCC/C=C/[C@@H]2C[C@H](O)C[C@H]2[C@H](O)/C=C/C(=O)O1` [BFA, Brefeldin A], for which, in series [3] (5h BFA washout), the “Colocalization of M protein with ERGIC53” value was 0.876 and 0.833 and 0.817; the “Colocalization of M protein with SEC61B” value is 0.423 and 0.481 and 0.508; the “ERGIC53 (colocalization value, Figure S5B)” value was 0.399 and 0.424 and 0.407; the “SEC61B (colocalization value, Figure S5B)” value is 0.895 and 0.946 and 0.906. In [3] (BFA treatment), the “Colocalization of M protein with ERGIC53” value was 0.305 and 0.466 and 0.315; the “Colocalization of M protein with SEC61B” value is 0.951 and 0.905 and 0.916; the “ERGIC53 (colocalization value, Figure S5B)” value was 0.418 and 0.389 and 0.288; the “SEC61B (colocalization value, Figure S5B)” value is 0.951 and 0.926 and 0.886. Further, the “ER export of M protein” value in series [3] (WT 17Cl-1 cells, 5 µg/mL BFA, 40 min) is “effectively blocked”.

With `CC(C)C(=O)OC[C@H]1O[C@@H](n2ccc(NO)nc2=O)[C@H](O)[C@@H]1O` [Molnupiravir], the “Inhibition, combination matrix (Figure S12C)” value in series [4] (Molnupiravir 0.01 uM) is given as -6.464; in series [4] (Molnupiravir 0.03 uM), -1.441; in series [4] (Molnupiravir 0.1 uM), -1.4813; in [4] (Molnupiravir 0.3 uM), 3.455; in series [4] (Molnupiravir 1 uM) it was 0.7848; in [4] (Molnupiravir 3 uM), 9.711. Moreover, the “Inhibition, combination matrix (Figure S12C)” value in series [4] (Molnupiravir 10 uM) is 41.7804; in series [4] (Molnupiravir 25 uM), 66.457. Moreover, the “Survival curves: per-mouse event code” value in series [5] (mouse, in vivo) was 0. Further, the “body weight relative to start (Figure 5N)” value in series [5] (mouse, in vivo) was 100; in series [5] (time 3), 98.8156 and 99.095 and 100.646 and 100.079 and 100.862 and 100.376 and 98.4711 and 101.287; in series [5] (time 5) it was 100.79 and 100.302 and 100.727 and 102.248 and 100.911 and 101.609 and 100.096 and 100.919; in series [5] (time 8) it was 102.338 and 103.472 and 103.062 and 103.016 and 101.448 and 100.239 and 100.322; in [5] (time 10), 102.338 and 103.472 and 103.062 and 103.016 and 101.448 and 100.239 and 100.322. Further, the “pathological severity scores, lung tissues” value in series [5] (mouse, in vivo) was 2 and 1.

Take `CC(C)(C)[C@H](NC(=O)C(F)(F)F)C(=O)N1C[C@H]2[C@@H]([C@H]1C(=O)N[C@H](C#N)C[C@@H]1CCNC1=O)C2(C)C` [nirmatrelvir]: the “Inhibition, combination matrix (Figure S12D)” value in series [4] (nirmatrelvir 0.01 uM) was -1.274; in series [4] (nirmatrelvir 0.03 uM) it was 3.148; in [4] (nirmatrelvir 0.1 uM), 7.328; in [4] (nirmatrelvir 0.3 uM) it was 49.1912; in series [4] (nirmatrelvir 1 uM), 73.8207; in series [4] (nirmatrelvir 3 uM) it was 76.6195. For the same molecule, the results for the “Inhibition, combination matrix (Figure S12D)” value in series [4] (nirmatrelvir 10 uM) and in [4] (nirmatrelvir 25 uM) were 79.1661 and 76.9584, respectively.

For the molecule GRKKRRQRRRPPQDYKDDDDK [FLAG], the “cell viability, Figure S7G” value in series [6] (peptide concentration 1000) was 98.6281 and 97.5158; in series [6] (peptide concentration 5000), 94.1787 and 96.4034; in series [6] (peptide concentration 10000), 96.4034 and 97.8865; in [6] (peptide concentration 20000), 94.9203 and 96.4034; in [6] (peptide concentration 40000), 95.6618 and 97.5158; in series [6] (peptide concentration 60000), 97.5158 and 96.0326. Further, the “cell viability, Figure S7G” value in series [6] (peptide concentration 80000) is 96.4034; in series [6] (peptide concentration 100000), 97.8865; in [6] (peptide concentration 400000) it was 98.6281 and 97.5158; in series [6] (peptide concentration 800000), 99.7405 and 96.0326. Also, the viability (commonly a read-out of living cells in per cent, often relative to untreated cells) at 24 h is 99.7% in [7] (peptide concentration 1000); 102% in series [7] (peptide concentration 4000); 98% in [7] (peptide concentration 8000); 97.5% in series [7] (peptide concentration 10000); 94% in [7] (peptide concentration 20000); 78.8% in [7] (peptide concentration 40000). Moreover, the viability at 24 h came out at 98.4% in series [7] (peptide concentration 60000); 84.5% in [7] (peptide concentration 80000); 88.8% in series [7] (peptide concentration 100000); 84.9% in [7] (peptide concentration 200000); 92% in series [9] (peptide concentration 1000); 88.6% in series [9] (peptide concentration 5000). The viability at 24 h in [9] (peptide concentration 10000) worked out at 92%; in series [9] (peptide concentration 20000), 89%; in [9] (peptide concentration 40000) it was 93.4%; in [9] (peptide concentration 60000) it was 90.5%; in series [9] (peptide concentration 80000), 94.5%; in series [9] (peptide concentration 100000), 94.2%. Also, the viability at 24 h in [9] (peptide concentration 400000) turned out to be 100%; in series [9] (peptide concentration 800000), 96.8%; in [10] (peptide concentration 1000), 94.8%; in [10] (peptide concentration 2000) it was 101%; in [10] (peptide concentration 4000) it was 102%; in series [10] (peptide concentration 6000) it was 106%. Besides, the viability at 24 h in series [10] (peptide concentration 8000) came to 102%; in series [10] (peptide concentration 10000) it was 105%; in [10] (peptide concentration 50000), 102%; in series [10] (peptide concentration 100000) it was 105%; in series [10] (peptide concentration 400000), 95.8%; in series [10] (peptide concentration 800000) it was 101%. Moreover, the “cell viability, Figure S7F” value was 96.8531 and 94.4056 in series [8] (peptide concentration 1000); 104.196 and 103.846 in series [8] (peptide concentration 2000); 104.895 in series [8] (peptide concentration 4000); 106.643 and 105.594 in series [8] (peptide concentration 6000); 101.049 and 100.35 in series [8] (peptide concentration 8000); 105.594 in [8] (peptide concentration 10000). The “cell viability, Figure S7F” value in series [8] (peptide concentration 50000) was 101.049 and 103.497; in [8] (peptide concentration 400000), 94.0559 and 93.7063; in [8] (peptide concentration 800000), 102.448. Further, the “cell viability, Figure S7E” value in series [1] (peptide concentration 1000) was 98.8246 and 101.437; in series [1] (peptide concentration 4000), 100.566 and 104.919; in [1] (peptide concentration 8000), 94.9064; in series [1] (peptide concentration 10000) it was 94.471 and 89.2468; in series [1] (peptide concentration 20000), 89.6822; in series [1] (peptide concentration 40000), 87.0701 and 87.9408. Also, the “cell viability, Figure S7E” value is 91.4236 and 94.9064 in [1] (peptide concentration 60000); 90.9882 and 92.2943 in series [1] (peptide concentration 80000); 101.001 and 93.6003 in series [1] (peptide concentration 100000); 85.764 in series [1] (peptide concentration 200000).
